We go through 21 compounds from patent US20140228214A1, “COMPOSITIONS COMPRISING A STREPTOMYCES-BASED BIOLOGICAL CONTROL AGENT AND A FUNGICIDE” (BAYER CROPSCIENCE LP, priority 2013, published 2014).

One assay has as its system Puccinia triticina. Kind of assay: Puccinia triticina-test (wheat)/preventive, evaluated 8 days after the inoculation. In kind it is in vivo.
Another assay deals with Pyrenophora teres. Kind of assay: Pyrenophora teres-test (barley)/preventive, evaluated 8 days after the inoculation. In kind it is in vivo.
The test system of the next assay is Phytophthora infestans. In kind it is in vivo.
Another assay deals with Alternaria solani. The experiment in a line: Alternaria test (tomatoes)/preventive, evaluated 3 days after the inoculation. In kind it is in vivo.
Assay [1] deals with Blumeria graminis fsp. hordei. The experiment in a line: Blumeria test (barley)/preventive, evaluated 7 days after the inoculation. In kind it is in vivo.
The test system of another assay is Venturia inaequalis. The experiment in a line: Venturia test (apples)/preventive, evaluated 10 days after the inoculation.
The next assay has as its system Septoria tritici. The experiment in a line: Septoria tritici-test (wheat)/preventive, evaluated 21 days after the inoculation. It is filed as in vivo.
In a further assay the test system is Sphaerotheca fuliginea. The experiment in a line: Sphaerotheca test (cucumbers)/preventive, evaluated 7 days after the inoculation. It is filed as in vivo.
Another assay has as its system Botrytis cinerea. The experiment in a line: Botrytis test (beans)/preventive, size of the lesions 2 days after the inoculation. Conditions: Table 17.

Read-outs that look alike come from different tables or passages of the source.

Protocol for Botrytis cinerea: After the spray coating has dried on, 2 small pieces of agar covered with growth of Botrytis cinerea are placed on each leaf. The inoculated plants are placed in a darkened chamber at 20° C. and a relative atmospheric humidity of 100%.
2 days after the inoculation, the size of the lesions on the leaves is evaluated.
Protocol for Venturia inaequalis: After the spray coating has dried on, the plants are inoculated with an aqueous conidia suspension of the causal agent of apple scab (Venturia inaequalis) and then remain for 1 day in an incubation cabinet at approximately 20° C. and a relative atmospheric humidity of 100%. The plants are then placed in a greenhouse at approximately 21° C. and a relative atmospheric humidity of approximately 90%.
The test is evaluated 10 days after the inoculation.

As to `Cn1cc(C(=O)Nc2ccccc2-c2cc(F)c(F)c(F)c2)c(C(F)F)n1` [F72, fluxapyroxad], the “Efficacy in % found” value was determined as 22% in the assay with Puccinia triticina (Table 22, 15.625 ppm a.i.); 22% in the assay on Puccinia triticina (Table 22, 31.25 ppm a.i.); 80% in the assay with Pyrenophora teres (Table 25, 15.625 ppm a.i.); 90% with Pyrenophora teres (Table 25, 31.25 ppm a.i.); 0% with Phytophthora infestans (Table 19, 100 ppm a.i.); 45% in the assay on Alternaria solani (Table 12, 0.5 ppm a.i.). Further, the “Efficacy in % found” value was determined as 0% in assay [1] (Table 15, 31.25 ppm a.i.); 0% in the assay on Venturia inaequalis (Table 31, 0.25 ppm a.i.); 13% with Septoria tritici (Table 26, 31.25 ppm a.i.).
For `Cc1nn(C)c(F)c1C(=O)Nc1ccccc1C(C)CC(C)C` (stereo not shown) [F84, penflufen], the “Efficacy in % found” value amounted to 0% in the assay on Sphaerotheca fuliginea (Table 29, 0.5 ppm a.i.); 67% in the assay with Puccinia triticina (Table 22, 31.25 ppm a.i.); 70% in the assay on Pyrenophora teres (Table 25, 62.5 ppm a.i.); 60% in the assay with Pyrenophora teres (Table 25, 125 ppm a.i.); 8% in the assay with Phytophthora infestans (Table 19, 100 ppm a.i.); 0% in the assay with Venturia inaequalis (Table 31, 0.5 ppm a.i.).
Regarding `CO/C=C(/C(=O)OC)c1ccccc1Oc1cc(Oc2ccccc2C#N)ncn1` [F107, azoxystrobin], the “Efficacy in % found” value with Sphaerotheca fuliginea (Table 28, 0.5 ppm a.i.) was found to be 37%; in the assay with Puccinia triticina (Table 22, 7.8125 ppm a.i.) it was 67%; in the assay with Pyrenophora teres (Table 25, 15.625 ppm a.i.), 60%; with Pyrenophora teres (Table 25, 31.25 ppm a.i.) it was 90%; with Alternaria solani (Table 13, 2 ppm a.i.), 41%; in assay [1] (Table 15, 31.25 ppm a.i.), 10%. Moreover, the “Efficacy in % found” value in the assay on Venturia inaequalis (Table 32, 0.5 ppm a.i.) is listed as 84%; with Septoria tritici (Table 26, 15.625 ppm a.i.) it was 13%; in the assay with Septoria tritici (Table 26, 31.25 ppm a.i.) it was 50%.
In the case of `O=C(NCc1ncc(C(F)(F)F)cc1Cl)c1c(Cl)cccc1Cl` [F143, fluopicolide], the “Efficacy in % found” value in the assay with Phytophthora infestans (Table 20, 5 ppm a.i.) was determined as 21%; with Venturia inaequalis (Table 32, 50 ppm a.i.), 0%.
On to `N#Cc1ccccc1NC(=O)c1snc(Cl)c1Cl` [F187, isotianil], for which the “Efficacy in % found” value with Sphaerotheca fuliginea (Table 30, 100 ppm a.i.) turned out to be 20%; in the assay with Botrytis cinerea (125 ppm a.i.), 40%; with Alternaria solani (Table 14, 50 ppm a.i.) it was 18%; in the assay with Venturia inaequalis (Table 31, 50 ppm a.i.), 0%; in the assay on Septoria tritici (Table 27, 250 ppm a.i.) it was 29%; with Septoria tritici (Table 27, 500 ppm a.i.), 29%.
For the compound `C#CCOc1ccc(CCNC(=O)C(OCC#C)c2ccc(Cl)cc2)cc1OC` (stereo not shown) [F206, mandipropamid], the “Efficacy in % found” value in the assay with Sphaerotheca fuliginea (Table 28, 100 ppm a.i.) was found to be 13%; with Phytophthora infestans (Table 20, 0.25 ppm a.i.), 47%.
For the compound `COCC(=O)N(c1c(C)cccc1C)[C@H](C)C(=O)OC` [F242, metalaxyl-M (mefenoxam)], the “Efficacy in % found” value with Sphaerotheca fuliginea (Table 28, 100 ppm a.i.) is 13%; in the assay on Venturia inaequalis (Table 32, 50 ppm a.i.) it was 0%.
On to chlorothalonil [F155], for which the “Efficacy in % found” value in the assay with Pyrenophora teres (Table 24, 250 ppm a.i.) is listed as 50%; with Phytophthora infestans (Table 21, 20 ppm a.i.), 0%; in the assay on Venturia inaequalis (Table 33, 10 ppm a.i.), 4%; in the assay on Septoria tritici (Table 27, 125 ppm a.i.), 57%.
As to difenoconazole [F7], the “Efficacy in % found” value worked out at 0% with Sphaerotheca fuliginea (Table 29, 1 ppm a.i.); 30% in the assay with Puccinia triticina (Table 23, 31.25 ppm a.i.); 60% in the assay with Puccinia triticina (Table 23, 62.5 ppm a.i.); 0% with Phytophthora infestans (Table 19, 100 ppm a.i.); 30% with Alternaria solani (Table 12, 2 ppm a.i.); 44% in assay [1] (Table 16, 62.5 ppm a.i.). Besides, the “Efficacy in % found” value in assay [1] (Table 16, 125 ppm a.i.) is 67%; with Venturia inaequalis (Table 31, 1 ppm a.i.) it was 38%.
As to fenamidone [F114], the “Efficacy in % found” value in the assay on Sphaerotheca fuliginea (Table 28, 100 ppm a.i.) came out at 21%; in the assay with Phytophthora infestans (Table 20, 1 ppm a.i.) it was 41%; in the assay with Alternaria solani (Table 13, 50 ppm a.i.), 62%; with Venturia inaequalis (Table 32, 50 ppm a.i.), 0%.
In the case of fenhexamid [F16], the “Efficacy in % found” value in the assay on Sphaerotheca fuliginea (Table 30, 100 ppm a.i.) amounted to 0%; in the assay on Phytophthora infestans (TABLE 17 (Phytophthora), 100 ppm a.i.), 0%; in the assay on Alternaria solani (Table 14, 50 ppm a.i.) it was 50%; in the assay with Venturia inaequalis (Table 31, 25 ppm a.i.), 0%.
Turning to fludioxonil [F248], the “Efficacy in % found” value was found to be 30% in the assay with Sphaerotheca fuliginea (Table 30, 100 ppm a.i.); 26% with Botrytis cinerea (2.5 ppm a.i.); 0% with Venturia inaequalis (Table 31, 50 ppm a.i.).
Consider flutolanil [F71], for which the “Efficacy in % found” value in the assay on Sphaerotheca fuliginea (Table 30, 100 ppm a.i.) came out at 20%; in the assay with Botrytis cinerea (250 ppm a.i.), 30%; with Venturia inaequalis (Table 31, 50 ppm a.i.), 0%.
fosetyl-aluminium [F281]: the “Efficacy in % found” value with Sphaerotheca fuliginea (Table 28, 100 ppm a.i.) worked out at 13%; in the assay on Phytophthora infestans (Table 20, 50 ppm a.i.), 55%; in the assay on Alternaria solani (Table 13, 50 ppm a.i.) it was 15%; in the assay on Venturia inaequalis (Table 32, 50 ppm a.i.) it was 0%.
Consider mancozeb [F174], for which the “Efficacy in % found” value in the assay on Sphaerotheca fuliginea (Table 29, 20 ppm a.i.) worked out at 0%; in the assay with Phytophthora infestans (Table 21, 20 ppm a.i.), 0%; in the assay with Venturia inaequalis (Table 33, 10 ppm a.i.), 0%.
In the case of phosphorous acid and its salts [F298], the “Efficacy in % found” value stood at 76% in the assay with Phytophthora infestans (Table 20, 500 ppm a.i.) and 0% with Venturia inaequalis (Table 32, 50 ppm a.i.).
With propamocarb hydrochloride [F220], the “Efficacy in % found” value was 10% in the assay on Sphaerotheca fuliginea (Table 30, 500 ppm a.i.); 7% with Phytophthora infestans (TABLE 17 (Phytophthora), 500 ppm a.i.); 12% in the assay on Alternaria solani (Table 14, 250 ppm a.i.); 0% with Venturia inaequalis (Table 31, 250 ppm a.i.).
Take propineb [F180]: the “Efficacy in % found” value in the assay on Sphaerotheca fuliginea (Table 29, 20 ppm a.i.) worked out at 0%; in the assay on Phytophthora infestans (Table 21, 20 ppm a.i.), 8%; with Venturia inaequalis (Table 33, 10 ppm a.i.), 81%.
Take prothioconazole [F41]: the “Efficacy in % found” value stood at 43% in the assay on Sphaerotheca fuliginea (Table 29, 1 ppm a.i.); 45% in the assay on Phytophthora infestans (Table 19, 100 ppm a.i.); 0% in the assay with Alternaria solani (Table 12, 2 ppm a.i.); 0% in the assay with Venturia inaequalis (Table 31, 1 ppm a.i.).
Regarding spiroxamine [F46], the “Efficacy in % found” value with Sphaerotheca fuliginea (Table 30, 100 ppm a.i.) is listed as 30%; in the assay on Botrytis cinerea (100 ppm a.i.), 14%; in the assay on Alternaria solani (Table 14, 50 ppm a.i.) it was 46%; in assay [1] (Table 16, 125 ppm a.i.), 11%; in the assay on Venturia inaequalis (Table 31, 50 ppm a.i.), 0%.
For the compound tebuconazole [F47], the “Efficacy in % found” value stood at 30% in the assay with Puccinia triticina (Table 23, 31.25 ppm a.i.); 60% in the assay on Puccinia triticina (Table 23, 62.5 ppm a.i.); 15% in the assay on Phytophthora infestans (Table 19, 100 ppm a.i.); 35% in the assay with Alternaria solani (Table 12, 2 ppm a.i.); 78% in assay [1] (Table 16, 31.25 ppm a.i.); 0% with Venturia inaequalis (Table 31, 1 ppm a.i.). Besides, in the assay with Septoria tritici (Table 27, 125 ppm a.i.), the “Efficacy in % found” value is recorded as 57%.
